Consider 1 compound from patent US20240174985A1, “METHOD FOR PRODUCING OVARIAN SOMATIC CELL-LIKE CELLS, AND METHOD FOR INDUCING DIFFERENTIATION OF PRIMATE PLURIPOTENT STEM CELLS INTO OVARIAN SOMATIC CELL-LIKE CELLS” (Kyoto University, priority 2021, published 2024).

Assay [1] deals with cynomolgus monkey ES cells. The assay is described as follows: Quantitative PCR of marker genes in cells induced from cynomolgus monkey ES cells. The class given is cell-based. The settings on record: without BMP4 and with the addition of LDN in step 1. Here is the method: The relative expression level of each marker gene was confirmed using a PCR apparatus (BIO-RAD CFX384 Real-Time System) with the following primers and conditions. In the table, the primers of PAX3, OSR1, PAX2 #3, EMX2 #1, WT1 #2, and LHX9 #2 were used only in the experiment of FIG. 31C, and the primers of OSR1 #10, CXCL12×4, BMP2, and BMP4 were used only for the experiment in FIG. 57C. The GAPDH gene and the PPIA gene were measured as housekeeping genes, and relative values with the average of Ct values of the two genes as a control value are shown in the graph. Although not shown in the graph, ERCC-00096, ERCC-00009, ERCC-00022, and ERCC-00025 were used in combination as a control, except for the experiment of FIG. 31C.

Assay [2] deals with cynomolgus monkey ES cells. The format is cell-based.
The mark [3] stands for this setting: concentration of LDN increased in step 1 (30, 100, 1,000 nM).

Turning to `c1ccc2c(-c3cnn4cc(-c5ccc(N6CCNCC6)cc5)cnc34)ccnc2c1` [LDN193189], in assay [1], the “expression of FOXF1” value is “almost disappeared”. Besides, the “induction of NR5A1-positive cells” value in assay [2] (addition in step 1 (BMS493 1 μM), FACS day 14) is “no particular advantage”. Besides, the “improvement in the proportion of NR5A1-positive cells” value in assay [2] (addition of LDN in step 1 (30, 100, 1,000 nM), days 14, 17, 21) is listed as “almost no improvement”. Further, in assay [2] (setting [3]), the “OSR1 expression at the end point of step 1 (day 2.2)” value is on record as “decreased”; the “increase in OSR1 expression in step 2 (days 4 and 6)” value was “became weaker”.
